The record followed here is PMC9851200, “Multiparameter phenotypic screening for endogenous TFEB and TFE3 translocation identifies novel chemical series modulating lysosome function” (Autophagy, 2022).

Holding throughout (format): binding
Experiment [1] addresses kinases (KINOMEscan panel) (Homo sapiens, UniProt O43293). As to conditions: DAPK3; NEW KINOMEscan.
Experiment [2] addresses kinases (KINOMEscan panel) (Homo sapiens, UniProt P00519). As to conditions: NEW KINOMEscan.
Experiment [3] deals with kinases (KINOMEscan panel) (Homo sapiens, UniProt P04626). As to conditions: kinase ERBB2; NEW KINOMEscan.
In experiment [4] the target is kinases (KINOMEscan panel) (Homo sapiens, UniProt P07949, V804L). As to conditions: NEW KINOMEscan.
kinases (KINOMEscan panel) (Homo sapiens, UniProt P07949, V804L), sequence (P07949 29-1114 V804L): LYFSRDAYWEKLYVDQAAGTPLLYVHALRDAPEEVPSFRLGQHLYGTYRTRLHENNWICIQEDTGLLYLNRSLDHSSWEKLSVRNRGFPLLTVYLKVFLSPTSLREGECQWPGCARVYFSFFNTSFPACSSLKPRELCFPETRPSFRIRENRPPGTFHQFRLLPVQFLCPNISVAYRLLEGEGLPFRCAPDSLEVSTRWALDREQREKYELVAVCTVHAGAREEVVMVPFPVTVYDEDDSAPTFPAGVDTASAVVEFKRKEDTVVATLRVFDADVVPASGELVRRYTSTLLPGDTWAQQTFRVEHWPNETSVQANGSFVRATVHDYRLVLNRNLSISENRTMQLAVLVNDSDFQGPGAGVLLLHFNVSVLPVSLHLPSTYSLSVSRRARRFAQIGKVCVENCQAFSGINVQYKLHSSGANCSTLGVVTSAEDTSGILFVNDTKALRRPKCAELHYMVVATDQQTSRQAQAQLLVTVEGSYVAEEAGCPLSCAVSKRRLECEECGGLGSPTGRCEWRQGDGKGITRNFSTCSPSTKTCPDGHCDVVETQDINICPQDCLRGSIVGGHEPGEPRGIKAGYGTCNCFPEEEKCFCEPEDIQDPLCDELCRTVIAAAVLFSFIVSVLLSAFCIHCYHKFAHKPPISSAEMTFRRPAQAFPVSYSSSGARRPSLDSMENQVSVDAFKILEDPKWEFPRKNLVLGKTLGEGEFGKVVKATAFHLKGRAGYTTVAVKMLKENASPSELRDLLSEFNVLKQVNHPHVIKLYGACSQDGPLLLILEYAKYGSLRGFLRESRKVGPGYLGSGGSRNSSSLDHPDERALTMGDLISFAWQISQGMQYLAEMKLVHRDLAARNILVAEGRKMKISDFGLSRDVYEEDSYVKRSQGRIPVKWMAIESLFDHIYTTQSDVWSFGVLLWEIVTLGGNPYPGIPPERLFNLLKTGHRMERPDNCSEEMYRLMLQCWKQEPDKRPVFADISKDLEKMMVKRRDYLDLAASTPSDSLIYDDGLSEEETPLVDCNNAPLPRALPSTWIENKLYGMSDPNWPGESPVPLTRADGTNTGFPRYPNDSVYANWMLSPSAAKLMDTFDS
The target in experiment [5] is kinases (KINOMEscan panel) (Homo sapiens, UniProt P17948). As to conditions: kinase FLT1; NEW KINOMEscan.
The target in experiment [6] is kinases (KINOMEscan panel) (Homo sapiens, UniProt P36888, D835V). As to conditions: NEW KINOMEscan.
Experiment [7] addresses kinases (KINOMEscan panel) (Homo sapiens, UniProt Q00535). As to conditions: NEW KINOMEscan.
Experiment [8] deals with kinases (KINOMEscan panel) (Homo sapiens, UniProt Q13233). As to conditions: MAP3K1; NEW KINOMEscan.
kinases (KINOMEscan panel) (Homo sapiens, UniProt Q13233), sequence (Q13233 whole entry): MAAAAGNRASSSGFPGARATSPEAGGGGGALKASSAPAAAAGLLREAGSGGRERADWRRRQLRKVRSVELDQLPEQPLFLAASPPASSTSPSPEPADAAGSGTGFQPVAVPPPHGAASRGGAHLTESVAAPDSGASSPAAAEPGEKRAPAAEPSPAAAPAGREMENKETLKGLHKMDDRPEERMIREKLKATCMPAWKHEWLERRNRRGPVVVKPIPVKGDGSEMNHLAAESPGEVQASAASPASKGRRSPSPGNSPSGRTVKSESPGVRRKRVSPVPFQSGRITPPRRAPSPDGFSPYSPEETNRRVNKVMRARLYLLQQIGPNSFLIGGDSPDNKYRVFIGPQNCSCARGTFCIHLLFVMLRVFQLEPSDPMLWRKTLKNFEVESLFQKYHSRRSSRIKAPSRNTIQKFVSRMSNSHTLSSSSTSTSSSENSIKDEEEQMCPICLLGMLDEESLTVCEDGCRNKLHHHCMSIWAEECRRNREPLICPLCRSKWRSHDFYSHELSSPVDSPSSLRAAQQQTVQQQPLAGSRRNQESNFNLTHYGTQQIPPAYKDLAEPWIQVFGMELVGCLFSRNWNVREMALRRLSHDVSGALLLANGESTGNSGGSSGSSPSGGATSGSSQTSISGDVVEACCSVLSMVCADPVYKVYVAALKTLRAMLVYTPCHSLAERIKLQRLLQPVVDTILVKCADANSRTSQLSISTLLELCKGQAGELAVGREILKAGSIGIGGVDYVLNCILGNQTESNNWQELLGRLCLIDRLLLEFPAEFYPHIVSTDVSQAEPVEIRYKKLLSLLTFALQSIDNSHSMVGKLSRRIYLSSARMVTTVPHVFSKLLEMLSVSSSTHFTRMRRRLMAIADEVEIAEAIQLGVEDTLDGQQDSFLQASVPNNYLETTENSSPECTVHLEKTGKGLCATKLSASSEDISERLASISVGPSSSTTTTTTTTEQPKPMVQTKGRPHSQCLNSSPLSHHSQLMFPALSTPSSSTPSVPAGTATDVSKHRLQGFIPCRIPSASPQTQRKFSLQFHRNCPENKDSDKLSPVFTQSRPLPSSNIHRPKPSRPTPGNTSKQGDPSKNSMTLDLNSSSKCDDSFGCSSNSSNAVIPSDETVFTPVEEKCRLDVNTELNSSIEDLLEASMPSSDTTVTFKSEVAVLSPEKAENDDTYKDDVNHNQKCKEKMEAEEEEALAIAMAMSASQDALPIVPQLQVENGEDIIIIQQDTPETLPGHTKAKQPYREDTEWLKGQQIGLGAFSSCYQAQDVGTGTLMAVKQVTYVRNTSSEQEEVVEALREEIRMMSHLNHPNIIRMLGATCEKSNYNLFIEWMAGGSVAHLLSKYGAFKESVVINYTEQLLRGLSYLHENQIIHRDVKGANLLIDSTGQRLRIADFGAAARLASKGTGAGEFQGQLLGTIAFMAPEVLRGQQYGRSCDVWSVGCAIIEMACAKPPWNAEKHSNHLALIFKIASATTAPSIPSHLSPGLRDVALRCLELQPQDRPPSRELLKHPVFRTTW
Experiment [9] concerns the target T1, kinases (KINOMEscan panel) (Homo sapiens, UniProt Q86YV6).
T1 sequence (Q86YV6 1-388): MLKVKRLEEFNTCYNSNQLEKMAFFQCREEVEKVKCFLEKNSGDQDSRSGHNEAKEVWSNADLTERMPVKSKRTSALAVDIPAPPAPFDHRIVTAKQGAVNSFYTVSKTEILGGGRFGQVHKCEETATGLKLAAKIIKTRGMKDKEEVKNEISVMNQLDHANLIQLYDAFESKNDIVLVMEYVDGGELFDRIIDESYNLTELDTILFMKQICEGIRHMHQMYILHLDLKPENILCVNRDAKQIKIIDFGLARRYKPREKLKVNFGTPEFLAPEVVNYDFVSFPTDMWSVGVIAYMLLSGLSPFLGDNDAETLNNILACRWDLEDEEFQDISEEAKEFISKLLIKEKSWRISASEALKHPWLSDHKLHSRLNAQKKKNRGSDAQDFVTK
As to conditions: kinase MYLK4; NEW KINOMEscan.

Experiment [10] deals with kinases (KINOMEscan panel) (Homo sapiens, UniProt Q8TDR2). As to conditions: STK35; NEW KINOMEscan.
The target of experiment [11] is kinases (KINOMEscan panel) (Homo sapiens, UniProt Q96NX5). As to conditions: CAMK1G; NEW KINOMEscan.
Experiment [12] concerns the target T2, kinases (KINOMEscan panel) (Homo sapiens, UniProt Q99640).
T2 sequence (Q99640 1-499): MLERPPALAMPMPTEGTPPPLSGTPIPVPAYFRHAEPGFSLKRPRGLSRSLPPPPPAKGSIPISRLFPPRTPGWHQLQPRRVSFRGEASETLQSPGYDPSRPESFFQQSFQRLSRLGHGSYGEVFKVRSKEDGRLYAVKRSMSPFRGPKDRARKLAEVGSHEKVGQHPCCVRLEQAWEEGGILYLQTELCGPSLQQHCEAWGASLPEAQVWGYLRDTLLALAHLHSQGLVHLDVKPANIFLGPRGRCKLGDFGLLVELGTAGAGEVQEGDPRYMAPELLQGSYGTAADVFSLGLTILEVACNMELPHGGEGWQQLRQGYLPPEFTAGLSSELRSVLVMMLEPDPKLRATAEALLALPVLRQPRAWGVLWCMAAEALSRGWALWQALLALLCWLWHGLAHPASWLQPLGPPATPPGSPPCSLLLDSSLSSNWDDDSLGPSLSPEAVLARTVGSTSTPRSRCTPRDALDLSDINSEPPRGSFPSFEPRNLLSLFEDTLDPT
As to conditions: kinase PKMYT1; NEW KINOMEscan.

In experiment [13] the target is kinases (KINOMEscan panel) (Homo sapiens, UniProt Q9Y4K4). As to conditions: kinase MAP4K5; NEW KINOMEscan.
kinases (KINOMEscan panel) (Homo sapiens, UniProt Q9Y4K4), sequence (Q9Y4K4 whole entry): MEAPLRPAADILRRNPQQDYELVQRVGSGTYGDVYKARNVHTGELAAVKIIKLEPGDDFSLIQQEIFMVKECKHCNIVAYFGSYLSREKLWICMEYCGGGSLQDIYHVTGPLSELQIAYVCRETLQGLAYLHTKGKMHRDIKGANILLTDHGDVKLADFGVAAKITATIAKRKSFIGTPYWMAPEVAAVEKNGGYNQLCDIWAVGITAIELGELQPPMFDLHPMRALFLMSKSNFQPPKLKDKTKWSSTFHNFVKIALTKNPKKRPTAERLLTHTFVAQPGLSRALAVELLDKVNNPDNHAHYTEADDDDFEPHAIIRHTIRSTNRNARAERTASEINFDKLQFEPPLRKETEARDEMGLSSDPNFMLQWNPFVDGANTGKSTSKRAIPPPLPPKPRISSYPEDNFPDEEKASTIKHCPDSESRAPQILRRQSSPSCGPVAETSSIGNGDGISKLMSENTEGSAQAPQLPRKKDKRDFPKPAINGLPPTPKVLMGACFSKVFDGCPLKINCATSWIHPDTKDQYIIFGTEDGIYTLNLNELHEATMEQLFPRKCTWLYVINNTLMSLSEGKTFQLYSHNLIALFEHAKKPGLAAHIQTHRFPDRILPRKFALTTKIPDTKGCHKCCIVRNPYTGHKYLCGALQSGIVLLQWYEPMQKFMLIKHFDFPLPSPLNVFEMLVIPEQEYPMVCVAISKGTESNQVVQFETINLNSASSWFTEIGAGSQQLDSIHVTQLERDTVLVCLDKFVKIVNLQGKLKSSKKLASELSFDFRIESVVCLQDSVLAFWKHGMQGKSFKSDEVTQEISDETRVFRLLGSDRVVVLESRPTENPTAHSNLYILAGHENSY

kinases (KINOMEscan panel) (Homo sapiens, UniProt P00519), sequence (P00519 whole entry): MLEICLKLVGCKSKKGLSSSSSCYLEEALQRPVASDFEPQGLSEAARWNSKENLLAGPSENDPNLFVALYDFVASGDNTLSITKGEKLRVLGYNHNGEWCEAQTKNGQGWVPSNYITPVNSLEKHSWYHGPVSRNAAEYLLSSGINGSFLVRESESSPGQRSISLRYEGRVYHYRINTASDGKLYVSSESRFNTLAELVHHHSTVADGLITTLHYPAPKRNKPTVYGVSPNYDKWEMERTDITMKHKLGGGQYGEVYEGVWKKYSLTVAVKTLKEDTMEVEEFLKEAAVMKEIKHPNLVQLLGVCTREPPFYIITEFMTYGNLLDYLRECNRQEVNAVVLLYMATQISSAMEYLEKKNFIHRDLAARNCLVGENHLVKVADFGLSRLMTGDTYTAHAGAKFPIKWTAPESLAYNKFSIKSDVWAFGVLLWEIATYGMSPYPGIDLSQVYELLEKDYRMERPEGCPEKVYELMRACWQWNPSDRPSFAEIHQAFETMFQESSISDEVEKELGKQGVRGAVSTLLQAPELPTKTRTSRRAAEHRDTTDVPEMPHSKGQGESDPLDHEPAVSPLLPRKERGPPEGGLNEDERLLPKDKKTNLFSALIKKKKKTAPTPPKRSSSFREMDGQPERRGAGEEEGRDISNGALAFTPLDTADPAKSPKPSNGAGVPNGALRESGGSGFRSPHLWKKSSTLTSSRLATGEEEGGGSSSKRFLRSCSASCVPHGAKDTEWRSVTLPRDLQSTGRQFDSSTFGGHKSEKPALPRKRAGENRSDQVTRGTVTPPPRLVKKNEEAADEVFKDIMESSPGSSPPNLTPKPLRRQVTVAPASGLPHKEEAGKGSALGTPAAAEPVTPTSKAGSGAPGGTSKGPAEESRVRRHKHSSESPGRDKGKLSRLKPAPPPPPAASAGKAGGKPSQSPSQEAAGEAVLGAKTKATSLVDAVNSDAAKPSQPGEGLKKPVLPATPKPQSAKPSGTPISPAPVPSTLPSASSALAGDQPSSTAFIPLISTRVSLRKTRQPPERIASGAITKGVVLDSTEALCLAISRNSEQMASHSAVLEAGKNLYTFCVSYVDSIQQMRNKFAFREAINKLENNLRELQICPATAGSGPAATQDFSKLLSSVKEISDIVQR
kinases (KINOMEscan panel) (Homo sapiens, UniProt O43293), sequence (O43293 whole entry): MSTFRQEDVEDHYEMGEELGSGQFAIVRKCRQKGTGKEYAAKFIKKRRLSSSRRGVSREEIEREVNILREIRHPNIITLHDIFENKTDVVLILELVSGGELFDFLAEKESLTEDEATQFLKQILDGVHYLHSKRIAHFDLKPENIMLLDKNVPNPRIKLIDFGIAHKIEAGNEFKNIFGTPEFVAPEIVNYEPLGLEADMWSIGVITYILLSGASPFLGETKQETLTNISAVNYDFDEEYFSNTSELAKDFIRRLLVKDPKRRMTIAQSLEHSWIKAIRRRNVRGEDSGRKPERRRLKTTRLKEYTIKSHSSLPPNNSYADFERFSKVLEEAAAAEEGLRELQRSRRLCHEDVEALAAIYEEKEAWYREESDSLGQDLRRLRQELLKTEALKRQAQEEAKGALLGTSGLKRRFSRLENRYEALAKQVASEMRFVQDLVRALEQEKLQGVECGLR

As for `Cc1cccc(-c2nc(N(C)c3ccc4ncsc4c3)c3ccccc3n2)n1` [NK-161], the “KINOMEscan DAPK3” value in experiment [1] is reported as 0. Also, in experiment [2], the “KINOMEscan ABL1-nonphosphorylated” value is 0 and the “KINOMEscan ABL1-phosphorylated” value was 29. Besides, the “KINOMEscan ERBB2” value in experiment [3] was 0. Also, the “KINOMEscan RET(V804L)” value in experiment [4] is 15. Moreover, in [5], the “KINOMEscan FLT1” value is listed as 12. In addition, the “KINOMEscan FLT3(D835V)” value in [6] came to 30. Moreover, the “KINOMEscan CDK5” value in [7] is on record as 19. Also, the “KINOMEscan MAP3K1” value in experiment [8] is 0. The “KINOMEscan MYLK4” value in experiment [9] is on record as 0. In addition, the “KINOMEscan STK35” value in experiment [10] is recorded as 0. Also, in experiment [11], the “KINOMEscan CAMK1G” value turned out to be 0. For the same compound, in [12], the “KINOMEscan PKMYT1” value is listed as 0. The “KINOMEscan MAP4K5” value in [13] worked out at 0.
For `Cc1cccc(-c2nc(Nc3ccc4nn(C)cc4c3)c3ccccc3n2)n1` [NK167], the “KINOMEscan DAPK3” value in experiment [1] was found to be 0. In [2], the “KINOMEscan ABL1-nonphosphorylated” value was 0 and the “KINOMEscan ABL1-phosphorylated” value is listed as 41. For the same compound, in experiment [3], the “KINOMEscan ERBB2” value was 0. Further, in experiment [4], the “KINOMEscan RET(V804L)” value is 0. Also, the “KINOMEscan FLT1” value in [5] was 4. Further, the “KINOMEscan FLT3(D835V)” value in [6] came to 19. In addition, the “KINOMEscan CDK5” value in experiment [7] is recorded as 14. In addition, the “KINOMEscan MAP3K1” value in [8] is 0. The “KINOMEscan MYLK4” value in [9] was 0. Further, the “KINOMEscan STK35” value in [10] was found to be 0. In [11], the “KINOMEscan CAMK1G” value was determined as 0. Besides, in experiment [12], the “KINOMEscan PKMYT1” value is given as 0. In addition, in [13], the “KINOMEscan MAP4K5” value stood at 0.
